Experimental data from patent US9206212B2, “Actinomycete strain composition and its use” (CENTRE NATIONAL DE LA RECHERCHE SCIENTIFIQUE, priority 2011, dated 2015).
Where a SMILES comes first, the peptide text is derived from it. Bridges are numbered along the chain shown (N, C = ends). [ ]: non-standard residue; d: D form. The star is where a group is joined. Ileψ(thiazoline)Cys = CC[C@H](C)[C@H](N)C1=N[C@H](C(=O)*)CS1; dOrn = NCCC[C@@H](N)C(=O)O

Legend:
[1] = test system: Streptomyces sp. BG76; experiment: Antibiotic sensibility of the strain; format: cell-based; set-up: key to Antibiotic sensibility: S: sensitive; R: resistant; settings: for Antibiotic sensibility: amount given with each antibiotic (30 μg, 300 U, 10 μg, 10 U, 250 μg)
[2] = Mineral phosphate solubilization test
[3] = Solubility of the antibiotic; format: physicochemical; settings: methanol and water
[4] = test system: Micrococcus luteus ATCC 381 (ML); experiment: Antimicrobial bioassay, paper filter disk technique (agar diffusion); format: cell-based
Method: (§1) The retention time of the main peaks D1 and D2 were 15.62 and 17.99 min, respectively. These fractions were checked again for both activities with mineral phosphate solubilization test and anti microbial bioassay, against ML, BS, PU and MR using the paper filter disk technique.
(§2) The purified Viridomycin (compound 1) was checked for anti microbial bioassay, against Micrococcus luteus ATCC 381 (ML), Bacillus subtilis ATCC 9524 (BS) and the phytopathogenic fungi Pythium ultimum (PU) and Mucor ramannianus NRRL 1829 (MR) using the paper filter disk technique.

[5] = test system: Bacillus subtilis ATCC 9524 (BS); experiment: as above; format: cell-based
Method: as §1, §2

[6] = test system: Pythium ultimum (PU); experiment: as above; format: cell-based
Method: as §1, §2

[7] = test system: Mucor ramannianus NRRL 1829 (MR); experiment: as above; format: cell-based
Method: as §1, §2

[8] = Mineral phosphate solubilization test; remark: listed apart in the source
[9] = HPLC peak of fraction D, FIG. 4
[10] = purified Compound 1 at final concentration 98.5 mg·mL^−1
[11] = filter disc i.d. 6 mm, c = 20 μg/mL, 20 μL/disc

## CC[C@H](C)[C@H](N)C1=N[C@H](C(=O)N[C@@H](CC(C)C)C(=O)N[C@H](CCC(=O)O)C(=O)N[C@H](C(=O)N[C@H]2CCCCNC(=O)[C@H](CC(N)=O)NC(=O)[C@@H](CC(=O)O)NC(=O)[C@H](Cc3cnc[nH]3)NC(=O)[C@@H](Cc3ccccc3)NC(=O)[C@H]([C@@H](C)CC)NC(=O)[C@@H](CCCN)NC2=O)[C@@H](C)CC)CS1 [Bacitracine] ({Ileψ(thiazoline)Cys}-L[dE]IK[dOrn]I[dF]H[dD]N; lactam 4-C)
[1]
  Sensitivity of the strain to the antibiotic (in words): sensitive
  Antibiotic sensibility: S

## CC(=O)OCC1=C(C(=O)O)N2C(=O)[C@@H](NC(=O)Cc3cccs3)[C@H]2SC1 [Cefalotin]
[1]
  Sensitivity of the strain to the antibiotic (in words): sensitive
  Antibiotic sensibility: S

## CO[C@@H]1[C@@H](OC(N)=O)[C@@H](O)[C@H](Oc2ccc3c(O)c(NC(=O)c4ccc(O)c(CC=C(C)C)c4)c(=O)oc3c2C)OC1(C)C [Novobiocine]
[1]
  Sensitivity of the strain to the antibiotic (in words): sensitive
  Antibiotic sensibility: S

## NS(N)(=O)=O [Sulfamides]
[1]
  Sensitivity of the strain to the antibiotic (in words): resistant
  Antibiotic sensibility: R

## Gentamycine
[1]
  Sensitivity of the strain to the antibiotic (in words): sensitive
  Antibiotic sensibility: S

## Polymyxin B
[1]
  Sensitivity of the strain to the antibiotic (in words): sensitive
  Antibiotic sensibility: S

## Tris (3-imino-4-oxo-cyclohexa-1,5-diene-carbaldehydro) iron (III) [Compound 1]
[2]; [9]
  Mineral phosphate solubilization activity (in words): mineral phosphate solubilization activities
[2]; [10]
  Concentration of solubilized Phosphate from RP: 63.7 µg/mL
[3]
  Solubility: soluble in methanol and water
[4]; [11]
  Diameter of microbial growth inhibition zone: 45 mm
[4]; on the standard media
  Antimicrobial activity (in words): inhibited
[5]; [11]
  Diameter of microbial growth inhibition zone: 29 mm
[5]; on the standard media
  Antimicrobial activity (in words): inhibited
[6]; [11]
  Diameter of microbial growth inhibition zone: 27 mm
[6]; on the standard media
  Antimicrobial activity (in words): inhibited
[7]; [11]
  Diameter of microbial growth inhibition zone: 38 mm
[7]; on the standard media
  Antimicrobial activity (in words): inhibited
[8]; [9]
  Mineral phosphate solubilization activity (in words): mineral phosphate solubilization activities
[8]; [10]
  Concentration of solubilized Phosphate from TC: 135.2 µg/mL
